Measured values from patent publication US11945822B2, “Pyrazolo-triazine and/or pyrazolo-pxrimidine derivatives as selective inhibitor of cyclin dependent kinase” (QURIENT CO., LTD., priority 2018, dated 2024).

The compounds below were run against T1, CDK1/Cyclin B (Homo sapiens, UniProt P06493) (assay: Enzymatic assay for CDK1 (FRET based LANCE Ultra kinase assay)). Conditions: read-out: CDK1 enzymatic activity (IC50 range).
T1 construct: purchased Invitrogen PR4768C
Assay type: biochemical
Method in brief: (§1)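 LANCE Ultra TR-FRET: ULight-MBP peptide (68 nM) with ATP at Km, […], 60 min at 23° C. EDTA plus Eu-anti-phospho-MBP added, another 60 min, then 665/615 nm emission read. Compounds tested as 8-dose 4-fold DMSO dilutions.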

T1 sequence (P06493 whole entry): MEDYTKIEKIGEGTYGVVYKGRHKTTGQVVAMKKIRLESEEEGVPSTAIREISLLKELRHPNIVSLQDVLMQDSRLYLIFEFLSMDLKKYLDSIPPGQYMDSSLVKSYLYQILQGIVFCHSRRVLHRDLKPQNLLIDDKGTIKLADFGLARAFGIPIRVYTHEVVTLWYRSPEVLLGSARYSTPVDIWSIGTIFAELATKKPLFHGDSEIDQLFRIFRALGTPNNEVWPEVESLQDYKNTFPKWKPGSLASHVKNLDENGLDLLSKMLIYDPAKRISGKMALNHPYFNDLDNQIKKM
T1 sequence (P14635 whole entry partner): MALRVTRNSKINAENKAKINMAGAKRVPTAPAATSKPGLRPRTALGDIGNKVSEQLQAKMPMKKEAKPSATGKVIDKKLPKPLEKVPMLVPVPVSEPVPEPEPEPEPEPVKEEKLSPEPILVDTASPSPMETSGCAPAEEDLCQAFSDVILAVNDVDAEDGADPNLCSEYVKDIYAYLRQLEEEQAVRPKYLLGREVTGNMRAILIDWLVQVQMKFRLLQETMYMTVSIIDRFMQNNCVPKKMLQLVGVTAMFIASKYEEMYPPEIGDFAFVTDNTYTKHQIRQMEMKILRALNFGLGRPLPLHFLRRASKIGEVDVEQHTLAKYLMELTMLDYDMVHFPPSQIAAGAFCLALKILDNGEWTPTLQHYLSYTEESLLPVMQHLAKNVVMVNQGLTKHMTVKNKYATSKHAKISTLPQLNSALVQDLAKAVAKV

IC50 | SMILES
> 1000 nM | CC(C)c1cnn2c(NCc3ccccc3-c3cn4c(n3)CCCC4)nc(N3CCC(N)CC3)nc12 [Compound 122]
100 to 1000 nM | CC(C)c1cnn2c(NCc3ccccc3-c3ccc4[nH]cnc4c3)nc(N3CCC(N)CC3)nc12 [Compound 123]
100 to 1000 nM | CC(C)c1cnn2c(NCc3ccccc3-c3cn4ccc(F)cc4n3)nc(N3CCC(N)CC3)nc12 [Compound 124]
100 to 1000 nM | CC(C)c1cnn2c(NCc3ccccc3N3Cc4ccccc4C3)nc(N3CCC(N)CC3)nc12 [Compound 128]

These compounds were tested against T2, CDK2/Cyclin A (Homo sapiens, UniProt P24941) (assay: Enzymatic assay for CDK2 (FRET based LANCE Ultra kinase assay)). Conditions: read-out: CDK2 enzymatic activity (IC50 range).
T2 construct: purchased Invitrogen PV6290
Assay type: biochemical
Method in brief: as §1

IC50 | SMILES
100 to 1000 nM | CC(C)c1cnn2c(NCc3ccccc3-c3cn4c(n3)CCCC4)nc(N3CCC(N)CC3)nc12 [Compound 122]
100 to 1000 nM | CC(C)c1cnn2c(NCc3ccccc3-c3ccc4[nH]cnc4c3)nc(N3CCC(N)CC3)nc12 [Compound 123]
100 to 1000 nM | CC(C)c1cnn2c(NCc3ccccc3-c3cn4ccc(F)cc4n3)nc(N3CCC(N)CC3)nc12 [Compound 124]
100 to 1000 nM | CC(C)c1cnn2c(NCc3ccccc3N3Cc4ccccc4C3)nc(N3CCC(N)CC3)nc12 [Compound 128]

What follows are compounds tested against T3, CDK5/p25 (Homo sapiens, UniProt Q00535) (assay: Enzymatic assay for CDK5 (FRET based LANCE Ultra kinase assay)). Conditions: read-out: CDK5 enzymatic activity (IC50 range).
T3 construct: purchased Invitrogen PR8543B
T3 sequence (Q00535 whole entry): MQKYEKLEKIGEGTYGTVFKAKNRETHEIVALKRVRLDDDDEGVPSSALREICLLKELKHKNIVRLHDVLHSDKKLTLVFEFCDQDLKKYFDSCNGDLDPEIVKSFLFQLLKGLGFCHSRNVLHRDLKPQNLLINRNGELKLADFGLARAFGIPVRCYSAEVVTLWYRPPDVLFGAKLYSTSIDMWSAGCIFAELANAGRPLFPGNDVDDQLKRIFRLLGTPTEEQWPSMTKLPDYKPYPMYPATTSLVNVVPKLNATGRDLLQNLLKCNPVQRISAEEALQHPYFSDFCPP
T3 sequence (Q15078 99-307 partner limits assumed): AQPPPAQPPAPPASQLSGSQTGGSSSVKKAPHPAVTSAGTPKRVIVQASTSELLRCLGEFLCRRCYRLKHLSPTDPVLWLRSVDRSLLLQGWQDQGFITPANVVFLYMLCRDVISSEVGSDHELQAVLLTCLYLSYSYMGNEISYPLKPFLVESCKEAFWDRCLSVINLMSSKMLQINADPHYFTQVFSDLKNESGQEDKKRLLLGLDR
Assay type: biochemical
Method in brief: as §1

IC50 | SMILES
100 to 1000 nM | CC(C)c1cnn2c(NCc3ccccc3-c3cn4c(n3)CCCC4)nc(N3CCC(N)CC3)nc12 [Compound 122]
< 100 nM | CC(C)c1cnn2c(NCc3ccccc3-c3ccc4[nH]cnc4c3)nc(N3CCC(N)CC3)nc12 [Compound 123]
< 100 nM | CC(C)c1cnn2c(NCc3ccccc3-c3cn4ccc(F)cc4n3)nc(N3CCC(N)CC3)nc12 [Compound 124]
< 100 nM | CC(C)c1cnn2c(NCc3ccccc3N3Cc4ccccc4C3)nc(N3CCC(N)CC3)nc12 [Compound 128]

What follows are compounds tested against T4, CDK7/Cyclin H/MNAT1 (Homo sapiens, UniProt P50613) (assay: Enzymatic assay for CDK7 (FRET based LANCE Ultra kinase assay)). Conditions: CDK7 over CDK1.
T4 construct: purchased Invitrogen PR6749B
T4 sequence (P50613 whole entry): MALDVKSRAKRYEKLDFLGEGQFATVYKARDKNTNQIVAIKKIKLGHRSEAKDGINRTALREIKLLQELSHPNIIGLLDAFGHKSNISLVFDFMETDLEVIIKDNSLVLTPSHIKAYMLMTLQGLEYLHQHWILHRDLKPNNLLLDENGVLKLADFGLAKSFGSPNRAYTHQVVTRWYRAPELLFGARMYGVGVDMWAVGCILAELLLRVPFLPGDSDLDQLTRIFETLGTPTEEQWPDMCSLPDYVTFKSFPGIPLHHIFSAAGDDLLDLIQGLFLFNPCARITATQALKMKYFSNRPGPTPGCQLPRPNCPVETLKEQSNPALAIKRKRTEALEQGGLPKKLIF
T4 sequence (P51946 whole entry partner): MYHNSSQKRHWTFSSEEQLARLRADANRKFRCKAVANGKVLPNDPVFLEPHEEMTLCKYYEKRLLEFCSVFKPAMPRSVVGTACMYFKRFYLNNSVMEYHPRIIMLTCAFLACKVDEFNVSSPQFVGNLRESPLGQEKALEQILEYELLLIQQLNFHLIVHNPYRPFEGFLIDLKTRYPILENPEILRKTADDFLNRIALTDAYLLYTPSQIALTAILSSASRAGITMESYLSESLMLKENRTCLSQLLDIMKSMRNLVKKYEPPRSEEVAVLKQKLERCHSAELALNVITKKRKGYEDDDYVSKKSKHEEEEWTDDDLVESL
T4 sequence (P51948 whole entry partner): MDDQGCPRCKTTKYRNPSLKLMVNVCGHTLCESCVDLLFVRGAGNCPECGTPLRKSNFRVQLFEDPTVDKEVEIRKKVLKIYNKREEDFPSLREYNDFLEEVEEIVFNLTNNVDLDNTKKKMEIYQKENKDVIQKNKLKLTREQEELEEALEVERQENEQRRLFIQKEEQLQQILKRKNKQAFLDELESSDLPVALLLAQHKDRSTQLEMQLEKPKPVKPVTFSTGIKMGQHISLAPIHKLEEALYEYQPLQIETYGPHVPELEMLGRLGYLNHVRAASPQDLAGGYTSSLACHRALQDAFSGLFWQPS
Assay type: biochemical
Method in brief: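 LANCE Ultra TR-FRET kinase assay using a ULight-labeled peptide substrate and a Eu-labeled anti-phospho antibody, with ATP at its Km. Purified CDK/cyclin complex was added to compound after brief centrifugation.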

SMILES | CDK1/CDK7: Selectivity of CDK7 inhibition over CDK1 inhibition
CC(C)c1cnn2c(NCc3ccccc3-c3cn4c(n3)CCCC4)nc(N3CCC(N)CC3)nc12 [Compound 122] | A (A=greater than 200 fold)
CC(C)c1cnn2c(NCc3ccccc3-c3ccc4[nH]cnc4c3)nc(N3CCC(N)CC3)nc12 [Compound 123] | B (B=less than 200 fold, but greater than 20 fold)
CC(C)c1cnn2c(NCc3ccccc3-c3cn4ccc(F)cc4n3)nc(N3CCC(N)CC3)nc12 [Compound 124] | B (B=less than 200 fold, but greater than 20 fold)
CC(C)c1cnn2c(NCc3ccccc3N3Cc4ccccc4C3)nc(N3CCC(N)CC3)nc12 [Compound 128] | B (B=less than 200 fold, but greater than 20 fold)

Same assay, conditions: CDK7 over CDK2

SMILES | CDK2/CDK7: Selectivity of CDK7 inhibition over CDK2 inhibition
CC(C)c1cnn2c(NCc3ccccc3-c3cn4c(n3)CCCC4)nc(N3CCC(N)CC3)nc12 [Compound 122] | B (B=less than 200 fold, but greater than 20 fold)
CC(C)c1cnn2c(NCc3ccccc3-c3ccc4[nH]cnc4c3)nc(N3CCC(N)CC3)nc12 [Compound 123] | B (B=less than 200 fold, but greater than 20 fold)
CC(C)c1cnn2c(NCc3ccccc3-c3cn4ccc(F)cc4n3)nc(N3CCC(N)CC3)nc12 [Compound 124] | B (B=less than 200 fold, but greater than 20 fold)
CC(C)c1cnn2c(NCc3ccccc3N3Cc4ccccc4C3)nc(N3CCC(N)CC3)nc12 [Compound 128] | B (B=less than 200 fold, but greater than 20 fold)

Same assay, conditions: CDK7 over CDK5

CDK5/CDK7: Selectivity of CDK7 inhibition over CDK5 inhibition | SMILES
C (C=less than 20 fold) | CC(C)c1cnn2c(NCc3ccccc3-c3ccc4[nH]cnc4c3)nc(N3CCC(N)CC3)nc12 [Compound 123]
C (C=less than 20 fold) | CC(C)c1cnn2c(NCc3ccccc3-c3cn4ccc(F)cc4n3)nc(N3CCC(N)CC3)nc12 [Compound 124]
C (C=less than 20 fold) | CC(C)c1cnn2c(NCc3ccccc3N3Cc4ccccc4C3)nc(N3CCC(N)CC3)nc12 [Compound 128]

SMILES | CDK5/CDK7: Selectivity of CDK7 inhibition over CDK5 inhibition
CC(C)c1cnn2c(NCc3ccccc3-c3cn4c(n3)CCCC4)nc(N3CCC(N)CC3)nc12 [Compound 122] | B (B=less than 200 fold, but greater than 20 fold)

Same assay, conditions: read-out: CDK7 enzymatic activity (IC50 range)

IC50 | SMILES
< 100 nM | CC(C)c1cnn2c(NCc3ccccc3-c3cn4c(n3)CCCC4)nc(N3CCC(N)CC3)nc12 [Compound 122]
< 100 nM | CC(C)c1cnn2c(NCc3ccccc3-c3ccc4[nH]cnc4c3)nc(N3CCC(N)CC3)nc12 [Compound 123]
< 100 nM | CC(C)c1cnn2c(NCc3ccccc3-c3cn4ccc(F)cc4n3)nc(N3CCC(N)CC3)nc12 [Compound 124]
< 100 nM | CC(C)c1cnn2c(NCc3ccccc3N3Cc4ccccc4C3)nc(N3CCC(N)CC3)nc12 [Compound 128]

What follows are compounds tested on HCT116 (assay: Cellular HCT116 viability assay (CellTiter-Glo, 72 hours)). Conditions: Homo sapiens, HCT-116.
Assay type: cell-based
Method in brief: (§2)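 72 h treatment, 37 °C, 5% CO2; DMSO ctrl, final <0.1%; CellTiter-Glo luminescence; n=2.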

IC50 | SMILES
< 1000 nM | CC(C)c1cnn2c(NCc3ccccc3-c3cn4c(n3)CCCC4)nc(N3CCC(N)CC3)nc12 [Compound 122]
< 1000 nM | CC(C)c1cnn2c(NCc3ccccc3-c3cn4ccc(F)cc4n3)nc(N3CCC(N)CC3)nc12 [Compound 124]

The compounds below were run on H460 (assay: Cellular H460 viability assay (CellTiter-Glo, 72 hours)). Conditions: Homo sapiens, NCI-H460.
Assay type: cell-based
Method in brief: as §2

IC50 | SMILES
< 1000 nM | CC(C)c1cnn2c(NCc3ccccc3-c3cn4c(n3)CCCC4)nc(N3CCC(N)CC3)nc12 [Compound 122]
< 1000 nM | CC(C)c1cnn2c(NCc3ccccc3-c3ccc4[nH]cnc4c3)nc(N3CCC(N)CC3)nc12 [Compound 123]
< 1000 nM | CC(C)c1cnn2c(NCc3ccccc3-c3cn4ccc(F)cc4n3)nc(N3CCC(N)CC3)nc12 [Compound 124]
< 1000 nM | CC(C)c1cnn2c(NCc3ccccc3N3Cc4ccccc4C3)nc(N3CCC(N)CC3)nc12 [Compound 128]

These compounds were tested on MV4-11 (assay: Cellular MV4-11 viability assay (CellTiter-Glo, 72 hours)). Conditions: Homo sapiens.
Assay type: cell-based
Method in brief: as §2

IC50 | SMILES
< 1000 nM | CC(C)c1cnn2c(NCc3ccccc3-c3cn4c(n3)CCCC4)nc(N3CCC(N)CC3)nc12 [Compound 122]
< 1000 nM | CC(C)c1cnn2c(NCc3ccccc3-c3ccc4[nH]cnc4c3)nc(N3CCC(N)CC3)nc12 [Compound 123]
< 1000 nM | CC(C)c1cnn2c(NCc3ccccc3-c3cn4ccc(F)cc4n3)nc(N3CCC(N)CC3)nc12 [Compound 124]
< 1000 nM | CC(C)c1cnn2c(NCc3ccccc3N3Cc4ccccc4C3)nc(N3CCC(N)CC3)nc12 [Compound 128]

These compounds were tested on RPMI-8226 (assay: Cellular RPMI-8226 viability assay (CellTiter-Glo, 72 hours)). Conditions: Homo sapiens.
Assay type: cell-based
Description: All cell lines were routinely tested for mycoplasma.
The effect of the CDK7 inhibitor to inhibit the growth of target cancer cells was evaluated through the 72 hours time period of viability assay. Briefly, the candidate cell line ware plated in 96 well plate at the following density of cells respectively. […] DMSO solvent without compound served as a control and final DMSO concentration less than 0.1%. After 72 hours of incubation at 37° C., 5% CO2 incubator, cells were analyzed for the viability using the CellTiter-Glo Luminescent Cell Viability Assay (Promega, Cat #G7570). All viability assays were performed in duplicate and Luminescence was read using an Envision (Perkin Elmer, USA). Data was analyzed using XLfit software.

IC50 | SMILES
< 1000 nM | CC(C)c1cnn2c(NCc3ccccc3-c3cn4c(n3)CCCC4)nc(N3CCC(N)CC3)nc12 [Compound 122]
< 1000 nM | CC(C)c1cnn2c(NCc3ccccc3-c3ccc4[nH]cnc4c3)nc(N3CCC(N)CC3)nc12 [Compound 123]
< 1000 nM | CC(C)c1cnn2c(NCc3ccccc3-c3cn4ccc(F)cc4n3)nc(N3CCC(N)CC3)nc12 [Compound 124]
< 1000 nM | CC(C)c1cnn2c(NCc3ccccc3N3Cc4ccccc4C3)nc(N3CCC(N)CC3)nc12 [Compound 128]
